Where “and” joins values, the source holds several entries; their conditions need not be identical. Equal entries are not always repeated.

Here are results for one compound from publication PMC7367283, “A PIP2 substitute mediates voltage sensor-pore coupling in KCNQ activation” (Communications Biology, 2020).

The target in one series is IKs (KCNQ1 + KCNE1) (Homo sapiens, UniProt P51787). The experiment in a line: IKs co-expressed with CiVSP (PIP2 depletion), two-electrode voltage clamp in Xenopus oocytes. The format is cell-based. From the text:
We co-expressed KCNQ1 with the voltage-dependent lipid phosphatase CiVSP[44] in Xenopus oocytes and recorded KCNQ1 currents using two-electrode voltage clamp with consecutive depolarizing voltage pulses. […] To more directly test CP1 effects, we applied CP1 to the intracellular side of the inside-out membrane patch that expressed IKs channels.
Background: Two-electrode voltage clamp holds a large cell at a set potential and records current.

The target in series [1] is KCNQ3 with mutation A315T (KCNQ3*) (Homo sapiens, UniProt O43525, A315T). The experiment in a line: Two-electrode voltage clamp of KCNQ3* in Xenopus oocytes. The format is cell-based. Particulars: Q3*, individual oocytes. From the text: KCNQ2 and KCNQ3 form a channel complex that carries M currents in neurons. Similar to KCNQ1, these KCNQ subunits require PIP2 for voltage-dependent activation. KCNQ2 alone can express functional channels in Xenopus oocytes, while KCNQ3 alone cannot. However, a single mutation, A315T, allows KCNQ3 to functionally express in Xenopus oocytes. We examined the effects of CP1 on KCNQ2, KCNQ3 with mutation A315T (denoted as KCNQ3*), KCNQ2+KCNQ3, and KCNQ2+KCNQ3* expressed in Xenopus oocytes (Fig. 5a). Similar to the effects on KCNQ1 and IKs channels, CP1 changed the amplitude of currents (Fig. 5b), shifted the G–V relation to more negative voltages (Fig. 5c), and slowed the deactivation kinetics (Fig. 5d) for all of these KCNQ channels. These CP1 effects were relatively small on KCNQ2 as compared with those on other KCNQ channels, and the effects on KCNQ2/KCNQ3* and KCNQ2/KCNQ3 complexes were closer to those on KCNQ2 alone.
Fig. 5 Subtype selectivity of CP1 on KCNQ channels. a Current traces of KCNQ channels as indicated in the absence and the presence of 10 µM CP1. […]
The whole-oocyte ionic currents were recorded with a GeneClamp 500B amplifier (Axon Instruments, CA) or iTEV90 amplifier (HEKA, Germany) and then sampled at 1 kHz and low-pass-filtered at 2 kHz. […] The Kir1.1 current was recorded with a high K^+ bath solution containing (in mM) 96 KCl, 4 NaCl, 1 CaCl2, 2 MgCl2, and 10 HEPES, pH 7.3–7.4. The HCN4 current was recorded in ND66 solution containing (in mM) 66 NaCl, 32 KCl, 1.8 CaCl2, 1 MgCl2, and 5 HEPES, pH 7.6. All the other potassium channels were recorded in ND96 solution. The currents of CaV1.2 channel were recorded in 40 mM Ba^2+ bath solution containing (in mM) 40 Ba(OH)2, 50 TEA-OH, 2 KOH, and 5 HEPES, adjusted to pH 7.4 with methanesulfonic acid. […] The HCN4 currents were recorded by a test pulse between −30 and −140 mV in 10-mV step from a holding potential of −30 mV. […]

In the case of `O=S(=O)([O-])Oc1c(-c2sc3c(ccc4cccc(Cl)c43)c2OS(=O)(=O)[O-])[nH]c2ccc(Br)cc12.[Na+].[Na+]` [CP1, DISODIUM 5-BROMO-2-[9-CHLORO-3-(SULFONATOOXY) NAPHTHO [1,2-B] THIEN-2-YL]-1H-INDOL-3-YL SULFATE], the “IKs currents after PIP2 depletion” value on IKs (KCNQ1 + KCNE1) (10 µM CP1, extracellular perfusion, pulses to +60 mV) is on record as “rescued IKs currents”. Moreover, the membrane permeability result at IKs (KCNQ1 + KCNE1) (inferred from rescue by extracellular perfusion) is on record as “membrane permeable”. The “outward current (Icp1/Ictrl)” value in series [1] (10 µM CP1, at −10 mV) is 1.2737 and 1.6954 and 1.3889 and 1.1185 and 2.1991. Also, the “∆V1/2” value in series [1] (10 µM CP1) was 53.8685 mV and 55.0436 mV and 52.8957 mV and 57.617 mV and 27.8181 mV. For the same compound, in series [1] (10 µM CP1 treated), the “τ deact at -120 mV” value is 0.795 s and 1.6371 s and 1.4451 s and 1.5742 s and 1.825 s and 1.6646 s.
